Experimental findings from patent US12565490B2, “Inhibitors of Receptor Interacting Protein Kinase I for the treatment of disease” (Board of Regents, The University of Texas System, priority 2020, dated 2026) are described below.

pIC50: −log10 of the molar value.

The experiment concerns human monocytic cell line U937. Briefly: Human U937 cellular necroptosis assay. The class given is cell-based. The conditions noted are these: U-937; U937 cells stimulated with 25 ng/mL human TNFalpha and 25 μM z-VAD-FMK; 22 hr; viability by Cell Titer-Glo 2.0; read-out: hU937 IC50. In outline:
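U937 cells (5000/well) driven to necroptosis by 25 ng/mL human TNFalpha plus 25 μM z-VAD-FMK alongside 1:3-diluted compounds, 22 hr at 37° C, 5% CO2. Viability by CellTiter-Glo luminescence; IC50 from four-parameter logistic fit.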
On the technique in general: In ATP-based viability assays light output follows the ATP content of the culture.
Broadly, the pIC50 is −log10 of the IC50, conventionally taken in molar units. `CN1C(=O)[C@@H](NC(=O)c2ncc(Cl)c(-c3cc(F)ccc3F)n2)COc2cc(Cl)cnc21` [Example 98, (S)-5-chloro-N-(8-chloro-5-methyl-4-oxo-2,3,4,5-tetrahydropyrido[3,2-b]-[1,4]oxazepin-3-yl)-4-(2,5-difluorophenyl)pyrimidine-2-carboxamide]: the pIC50 is 8.14.

Turning to `CN1C(=O)[C@@H](NC(=O)c2ncc(Cl)c(-c3cc(F)cc(F)c3)n2)COc2cc(Cl)cnc21` [Example 99, (S)-5-chloro-N-(8-chloro-5-methyl-4-oxo-2,3,4,5-tetrahydropyrido [3,2-b]-[1,4]oxazepin-3-yl)-4-(3,5-difluorophenyl)pyrimidine-2-carboxamide], the negative logarithm of the IC50 (pIC50) was 7.86.

With `Cc1cc(-c2nc(C(=O)N[C@H]3COc4cc(Cl)cnc4N(C)C3=O)ncc2Cl)ccc1F` [Example 100, (S)-5-chloro-N-(8-chloro-5-methyl-4-oxo-2,3,4,5-tetrahydropyrido[3,2-b]-[1,4]oxazepin-3-yl)-4-(4-fluoro-3-methylphenyl)pyrimidine-2-carboxamide], the negative logarithm of the IC50 (pIC50) is 7.91.

As to `CN1C(=O)[C@@H](NC(=O)c2ncc(Cl)c(-c3ccccc3Cl)n2)COc2cc(Cl)cnc21` [Example 101, (S)-5-chloro-N-(8-chloro-5-methyl-4-oxo-2,3,4,5-tetrahydropyrido[3,2-b]-[1,4]oxazepin-3-yl)-4-(2-chlorophenyl)pyrimidine-2-carboxamide], the pIC50 was 7.83.

In the case of `CN1C(=O)[C@@H](NC(=O)c2ncc(Cl)c(-c3cccc(Cl)c3)n2)COc2cc(Cl)cnc21` [Example 102, (S)-5-chloro-N-(8-chloro-5-methyl-4-oxo-2,3,4,5-tetrahydropyrido[3,2-b]-[1,4]oxazepin-3-yl)-4-(3-chlorophenyl)pyrimidine-2-carboxamide], the negative-log IC50 (pIC50) is 7.89.

In the case of `CN1C(=O)[C@@H](NC(=O)c2ncc(Cl)c(-c3ccc(Cl)cc3)n2)COc2cc(Cl)cnc21` [Example 103, (S)-5-chloro-N-(8-chloro-5-methyl-4-oxo-2,3,4,5-tetrahydropyrido[3,2-b]-[1,4]oxazepin-3-yl)-4-(4-chlorophenyl)pyrimidine-2-carboxamide], the pIC50 was 8.17.

With `CN1C(=O)[C@@H](NC(=O)c2ncc(Cl)c(-c3cccc(C#N)c3)n2)COc2cc(Cl)cnc21` [Example 104, (S)-5-chloro-N-(8-chloro-5-methyl-4-oxo-2,3,4,5-tetrahydropyrido[3,2-b]-[1,4]oxazepin-3-yl)-4-(3-cyanophenyl)pyrimidine-2-carboxamide], the negative logarithm of the IC50 (pIC50) was 7.49.

Turning to `CN1C(=O)[C@@H](NC(=O)c2ncc(Cl)c(-c3ccc(C#N)cc3)n2)COc2cc(Cl)cnc21` [Example 105, (S)-5-chloro-N-(8-chloro-5-methyl-4-oxo-2,3,4,5-tetrahydropyrido[3,2-b]-[1,4]oxazepin-3-yl)-4-(4-cyanophenyl)pyrimidine-2-carboxamide], the negative-log IC50 (pIC50) is 7.71.

In the case of `Cc1cccc(-c2nc(C(=O)N[C@H]3COc4cc(Cl)cnc4N(C)C3=O)ncc2Cl)c1` [Example 106, (S)-5-chloro-N-(8-chloro-5-methyl-4-oxo-2,3,4,5-tetrahydropyrido[3,2-b]-[1,4]oxazepin-3-yl)-4-(m-tolyl)-pyrimidine-2-carboxamide], the negative-log IC50 (pIC50) is 7.83.

As to `Cc1ccn(-c2nc(C(=O)N[C@H]3COc4cc(Cl)cnc4N(C)C3=O)ncc2Cl)n1` [Example 107, (S)-5-chloro-N-(8-chloro-5-methyl-4-oxo-2,3,4,5-tetrahydropyrido [3,2-b]-[1,4]oxazepin-3-yl)-4-(3-methyl-1H-pyrazol-1-yl)-pyrimidine-2-carboxamide], the pIC50 is 6.22.

For the molecule `CN1C(=O)[C@@H](NC(=O)c2ncc(Cl)c(-c3ncccc3F)n2)COc2cc(Cl)cnc21` [Example 108, (S)-5-chloro-N-(8-chloro-5-methyl-4-oxo-2,3,4,5-tetrahydropyrido[3,2-b]-[1,4]oxazepin-3-yl)-4-(3-fluoropyridin-2-yl)pyrimidine-2-carboxamide], the pIC50 was 6.92.

For the molecule `CN1C(=O)[C@@H](NC(=O)c2ncc(Cl)c(-c3cncc(F)c3)n2)COc2cc(Cl)cnc21` [Example 109, (S)-5-chloro-N-(8-chloro-5-methyl-4-oxo-2,3,4,5-tetrahydropyrido[3,2-b]-[1,4]oxazepin-3-yl)-4-(5-fluoropyridin-3-yl)pyrimidine-2-carboxamide], the pIC50 is 7.23.

With `Cc1ncc(-c2nc(C(=O)N[C@H]3COc4cc(Cl)cnc4N(C)C3=O)ncc2Cl)cn1` [Example 110, (S)-5-chloro-N-(8-chloro-5-methyl-4-oxo-2,3,4,5-tetrahydropyrido[3,2-b]-[1,4]oxazepin-3-yl)-2′-methyl-[4,5′-bipyrimidine]-2-carboxamide], the negative-log IC50 (pIC50) was 5.45.

As for `CN1C(=O)[C@@H](NC(=O)c2ncc(Cl)c(-c3cncnc3)n2)COc2cc(Cl)cnc21` [Example 111, (S)-5-chloro-N-(8-chloro-5-methyl-4-oxo-2,3,4,5-tetrahydropyrido[3,2-b]-[1,4]oxazepin-3-yl)-[4,5′-bipyrimidine]-2-carboxamide], the pIC50 is 6.31.

Regarding `CN1C(=O)[C@@H](NC(=O)c2ncc(Cl)c(-c3cnccn3)n2)COc2cc(Cl)cnc21` [Example 112, (S)-5-chloro-N-(8-chloro-5-methyl-4-oxo-2,3,4,5-tetrahydropyrido[3,2-b]-[1,4]oxazepin-3-yl)-4-(pyrazin-2-yl)pyrimidine-2-carboxamide], the pIC50 is 7.03.

`CN1C(=O)[C@@H](NC(=O)c2ncc(Cl)c(-c3cccc4[nH]cnc34)n2)COc2cc(Cl)cnc21` [Example 113, (S)-4-(1H-benzo[d]imidazol-4-yl)-5-chloro-N-(8-chloro-5-methyl-4-oxo-2,3,4,5-tetrahydropyrido[3,2-b]-[1,4]oxazepin-3-yl)pyrimidine-2-carboxamide]: the negative-log IC50 (pIC50) was 5.11.

As to `CN1C(=O)[C@@H](NC(=O)c2ncc(Cl)c(-c3cccc4[nH]ncc34)n2)COc2cc(Cl)cnc21` [Example 114, (S)-5-chloro-N-(8-chloro-5-methyl-4-oxo-2,3,4,5-tetrahydropyrido[3,2-b]-[1,4]oxazepin-3-yl)-4-(1H-indazol-4-yl)pyrimidine-2-carboxamide], the pIC50 was 7.20.

With `CN1C(=O)[C@@H](NC(=O)c2ncc(Cl)c(-c3ccn4cnnc4c3)n2)COc2cc(Cl)cnc21` [Example 115, (S)-4-([1,2,4]triazolo[4,3-a]pyridin-7-yl)-5-chloro-N-(8-chloro-5-methyl-4-oxo-2,3,4,5-tetrahydropyrido[3,2-b]-[1,4]oxazepin-3-yl)pyrimidine-2-carboxamide], the negative-log IC50 (pIC50) was 6.48.

On to `Cc1cnc(C(=O)N[C@H]2COc3cc(Cl)cnc3N(C)C2=O)nc1-c1ccccc1F` [Example 116, (S)-N-(8-chloro-5-methyl-4-oxo-2,3,4,5-tetrahydro-pyrido[3,2-b][1,4]oxazepin-3-yl)-4-(2-fluorophenyl)-5-methylpyrimidine-2-carboxamide], for which the negative-log IC50 (pIC50) is 8.07.

`Cc1cnc(C(=O)N[C@H]2COc3cc(Cl)cnc3N(C)C2=O)nc1-c1cccc(F)c1F` [Example 117, (S)-N-(8-chloro-5-methyl-4-oxo-2,3,4,5-tetrahydro-pyrido[3,2-b][1,4]oxazepin-3-yl)-4-(2,3-difluorophenyl)-5-methylpyrimidine-2-carboxamide]: the pIC50 was 7.85.
